These results are taken from PubChem BioAssay (NCI).

SMILES strings stand for the structures.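 In this assay, cells in 96-well plates receive the compound at five concentrations for 48 hours. Endpoints are linearly interpolated between the surrounding concentrations. At the TGI there is no net growth.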 Some results are limits rather than exact numbers.

Among the test systems are HOP-92 NSCLC; CAKI-1 renal; HT29 colon; NCI-H23 lung; HCT-116 colon; SK-OV-3 ovarian; EKVX NSCLC; SK-MEL-28 melanoma; TK-10 renal; T-47D breast.
Holding throughout (experiment): growth of human tumour cells (NCI), 48 h

Take `CC(=O)O[C@H]1CCC2[C@@H]3CCC4NC(=O)C(C#N)C[C@]4(C)C3CC[C@@]21C` (some centres not stated): the TGI with HOP-92 NSCLC, in the experiment on CAKI-1 renal, with HT29 colon, in the experiment on NCI-H23 lung, in the experiment on HCT-116 colon and with SK-OV-3 ovarian was over 10 µM each time. The TGI in the experiment on EKVX NSCLC, in the experiment on SK-MEL-28 melanoma, in the experiment on TK-10 renal and with T-47D breast was over 10 µM each time.
Regarding `Nn1c(Sc2nc3ccccc3c(=O)n2N)nc2ccccc2c1=O`, the TGI with HOP-92 NSCLC is 29.3 µM; in the experiment on CAKI-1 renal, 20.3 µM; with HT29 colon, 14.3 µM; in the experiment on NCI-H23 lung it was 5.43 µM; with HCT-116 colon, 12.6 µM; in the experiment with SK-OV-3 ovarian, 54.6 µM. The TGI was 38.9 µM in the experiment with EKVX NSCLC, 13.1 µM in the experiment on SK-MEL-28 melanoma, 42.2 µM in the experiment on TK-10 renal and over 51.8 µM in the experiment on T-47D breast.
On to `CC1CN=C(c2ccc(CN3CCC(C4CCN(Cc5ccc(C6=NCC(C)N6)cc5)CC4)CC3)cc2)N1` (configuration not stated), for which the TGI is over 100 µM with HOP-92 NSCLC; over 100 µM in the experiment on CAKI-1 renal; 42.7 µM in the experiment with HT29 colon; 84.7 µM in the experiment with NCI-H23 lung; 34 µM in the experiment with HCT-116 colon; 53.9 µM in the experiment on SK-OV-3 ovarian. In addition, the TGI with EKVX NSCLC is 47.2 µM; in the experiment with SK-MEL-28 melanoma it was over 100 µM; in the experiment on TK-10 renal it was 57.5 µM; with T-47D breast, 49.4 µM.
Turning to `O=C1/C(=C/c2ccc(O)cc2)CCC1CNc1ccccc1` (configuration not stated), the TGI worked out at 27.9 µM in the experiment with HOP-92 NSCLC; 26.5 µM in the experiment with CAKI-1 renal; 27.7 µM in the experiment with HT29 colon; 30.4 µM with NCI-H23 lung; 17.5 µM in the experiment on HCT-116 colon; 43.9 µM in the experiment with SK-OV-3 ovarian. The TGI in the experiment on EKVX NSCLC stood at 33.6 µM; in the experiment on SK-MEL-28 melanoma, 29.9 µM; with TK-10 renal, 24.3 µM; in the experiment with T-47D breast, 55.2 µM.
Turning to `CC1(C)C=[N+]([O-])C(C)(C)N1O`, the TGI in the experiment on HOP-92 NSCLC, with CAKI-1 renal, in the experiment on HT29 colon, in the experiment on NCI-H23 lung, in the experiment on HCT-116 colon and in the experiment with EKVX NSCLC was over 10 µM each time. Besides, the TGI with TK-10 renal and in the experiment on T-47D breast was over 10 µM throughout.
Regarding `Clc1nc2c(C#Cc3ccccc3)ncnc2n1C1CCCCO1` (configuration not stated), the TGI was 34 µM in the experiment with HOP-92 NSCLC; 28.1 µM in the experiment with CAKI-1 renal; 27.6 µM in the experiment on HT29 colon; 33.5 µM in the experiment with NCI-H23 lung; 21.7 µM in the experiment on HCT-116 colon; over 100 µM in the experiment on SK-OV-3 ovarian. The TGI in the experiment on EKVX NSCLC was 12.4 µM; in the experiment on SK-MEL-28 melanoma it was 91.3 µM; in the experiment on TK-10 renal, 53 µM; with T-47D breast, over 100 µM.
As for `CC(=O)NC(=O)NC1=NCCC(=O)N1CCc1c[nH]c2ccccc12`, the TGI in the experiment with HOP-92 NSCLC, in the experiment with CAKI-1 renal, with HT29 colon, in the experiment with NCI-H23 lung, in the experiment with HCT-116 colon and in the experiment with SK-OV-3 ovarian was over 100 µM each time. Besides, the TGI in the experiment on EKVX NSCLC, in the experiment with SK-MEL-28 melanoma, in the experiment with TK-10 renal and with T-47D breast was over 100 µM throughout.
Take `Cc1c(C#N)c(=N)oc2ccccc12`: the TGI in the experiment on HOP-92 NSCLC, with CAKI-1 renal, with HT29 colon, with NCI-H23 lung, with HCT-116 colon and in the experiment with SK-OV-3 ovarian was over 100 µM each time. The TGI with EKVX NSCLC, in the experiment with SK-MEL-28 melanoma, with TK-10 renal and with T-47D breast was over 100 µM in each case.
Turning to `O=c1oc2cccnc2n1CCCCN1CCN(c2ccccc2)CC1`, the TGI with HOP-92 NSCLC, in the experiment with CAKI-1 renal, in the experiment on HT29 colon, in the experiment on NCI-H23 lung, with HCT-116 colon and in the experiment with SK-OV-3 ovarian was over 100 µM in each case. Also, the TGI with EKVX NSCLC, in the experiment on SK-MEL-28 melanoma, in the experiment on TK-10 renal and in the experiment with T-47D breast was over 100 µM in each case.
As for `Nc1ccc2c(c1)NC(=O)[C@@H]1CCCN1C2=O`, the TGI in the experiment on HOP-92 NSCLC, in the experiment with CAKI-1 renal, in the experiment on HT29 colon, with NCI-H23 lung, in the experiment with HCT-116 colon and with SK-OV-3 ovarian was over 100 µM each time. The TGI with EKVX NSCLC, with SK-MEL-28 melanoma, with TK-10 renal and in the experiment with T-47D breast was over 100 µM in each case.
As to `Cn1c2ccc(C3=NCCN3)cc2c2cc(C3=NCCN3)ccc21`, the TGI is 63.7 µM in the experiment with HOP-92 NSCLC; over 100 µM in the experiment on CAKI-1 renal; over 100 µM with HT29 colon; over 100 µM with NCI-H23 lung; over 100 µM in the experiment on HCT-116 colon; over 100 µM in the experiment with SK-OV-3 ovarian. The TGI in the experiment with EKVX NSCLC, with SK-MEL-28 melanoma, with TK-10 renal and in the experiment with T-47D breast was over 100 µM throughout.
In the case of `COC(=O)[C@@]1(C)CCC[C@]2(C(=O)O)C3Cc4occc4[C@H](C)[C@@H]3CCC21` (some centres not stated), the TGI was 81 µM with HOP-92 NSCLC; 91.8 µM in the experiment on HT29 colon; over 100 µM in the experiment on NCI-H23 lung; over 100 µM in the experiment on HCT-116 colon; over 100 µM with SK-OV-3 ovarian; over 100 µM in the experiment with EKVX NSCLC. The TGI with SK-MEL-28 melanoma, in the experiment on TK-10 renal and in the experiment on T-47D breast was over 100 µM in each case.
For `CC1CN=C(c2ccc(-c3nc(-c4ccc(C5=NCC(C)N5)cc4)nc(N(C)C)n3)cc2)N1` (configuration not stated), the TGI in the experiment on HOP-92 NSCLC worked out at 11.3 µM; in the experiment on CAKI-1 renal, 32 µM; with HT29 colon it was 7.33 µM; with NCI-H23 lung, 9.94 µM; with HCT-116 colon, 3.16 µM; in the experiment on SK-OV-3 ovarian, 5.54 µM. Besides, the TGI in the experiment with EKVX NSCLC came to 8.67 µM; in the experiment with SK-MEL-28 melanoma, 8.12 µM; with TK-10 renal, 11.5 µM; in the experiment on T-47D breast, 12.9 µM.
Consider `CC(C)(C)C(=O)N1CCN(C=O)C1=S`, for which the TGI in the experiment with HOP-92 NSCLC is 52.9 µM; in the experiment on CAKI-1 renal it was over 100 µM; in the experiment on HT29 colon it was over 100 µM; with NCI-H23 lung, over 100 µM; with HCT-116 colon it was over 100 µM; in the experiment on SK-OV-3 ovarian, over 100 µM. In addition, the TGI with EKVX NSCLC, in the experiment with SK-MEL-28 melanoma, in the experiment on TK-10 renal and in the experiment on T-47D breast was over 100 µM each time.
